A word on the IC50: it is the point on the concentration scale where inhibition reaches its midpoint.

From PMC5131364, “Pharmacologic modulation of RORγt translates to efficacy in preclinical and translational models of psoriasis and inflammatory arthritis” (Scientific Reports, 2016) come the findings set out here.

In assay [1] the test system is human CD4+ T cells under Treg polarizing conditions. The experiment in a line: Human Treg in vitro differentiation. The class given is cell-based. Conditions: 6 days, 1 μM. As to the method: (§1) Mouse CD4+ T cell in vitro Th1 differentiation
(§2) Total CD4+ T cells were isolated from splenocytes of C57/BL6 mice (Chareles River Labrotory) using a CD4+ T cell isolation kit (Miltenyl Biotec, Auburn, CA), following the manufacturer’s instructions. Cells were resuspended in culture medium (described in Method section of Th17 differentiation) and were added to 96‐well plates at 2x10^5 per well. Titrated JNJ‐54271074 was added to each well at final DMSO concentration of 0.2%. Cells were incubated for 1 hour, after which Th1 cell differentiation medium was added with final concentrations of 1 µg/ml anti‐CD3, 5 µg/mL anti‐CD28 (BD Pharmingen, San Diego, CA), 10 µg/ml anti‐IL4, 10 ng/mL IL‐12, (R&D Systems, Minneapolis, MN). Cells were cultured at 37 °C and 5% CO2 for 3 days. Supernatants were collected and the accumulated cytokines in culture were measured by ELISA kits (R&D Systems, Minneapolis, MN) following manufacturers' instructions.
(§3) IL‐23 induced IL‐17A and IL‐22 production in mouse splenocytes splenocytes were isolated from C57/BL6 mice and resuspended in medium and cultured in 96‐well plates at […] per 100 µL per well. […] Supernatants were collected and the accumulated cytokines in culture were measured by ELISA according to the manufacturer’s instructions (IL‐17A kit from R&D systems, and IL‐22 from Biolegend San Diego). […]

Another assay relates to mouse splenocytes. The experiment in a line: IL-23 induced IL-17A and IL-22 production in mouse splenocytes. The class given is cell-based. The settings on record: Splenocyte, 96 h, IL-23 and IL-2, 4 days. As to the method: as §1, §2, §3
Assay [2] relates to collagen-induced arthritis in DBA/1Lacj mice. Description: Mouse collagen-induced arthritis model. The class given is in vivo. Conditions: 60 mg/kg BID oral. The procedure: Mice (female DBA/1Lacj mice, Jackson Laboratories; 8–10 weeks) were housed with 12 hours light-dark cycle with food and water provided ad libitum. Following acclimation, mice were immunized with an emulsion containing equal amounts of Chick Type II Collagen (Chondrex, Redmond, WA) and Complete-Freund’s adjuvant (CFA, Chondrex), 100 μg each per mouse, on day 0 at the base of the tail and administered a second immunization boost on day 21. On day 21, animals were examined for clinical arthritis scores and randomized into treatment groups. […] The clinical arthritis scores were evaluated from days 21 to 34. Animals were euthanized under CO2 on day 35. Both hind-paws from each animal were collected and fixed in 10% neutral buffered formalin for histopathology. Both front paws were digested after removing the skin in 0.125% (v/v) Dispase II (Roche, Indianapolis, IN), 0.2% collagenase II (Roche, Indianapolis, IN), and 0.2% collagenase IV (Sigma-Aldrich, St. Louis, MO) in HBSS for 75 min at 37 °C and passed through a cell strainer. Cells were then stimulated and analyzed by flow cytometry for cytokine-producing cells.
Tissues were fixed in 10% formalin, sectioned, and stained with H&E for histology at Seventh Wave Laboratories, LLC, (Chesterfield, MO).

Like-named read-outs stand apart in the source and are kept apart here.

As to `COc1nc2ccc([C@@](O)(c3ccc(C)nc3C)c3cnnn3C)cc2c(Cl)c1Cc1ccc(C(F)(F)F)cc1` [JNJ-54271074], in assay [1], the “mRNA expression of FOXP3” value is listed as “slightly increased” and the “percentage of FOXP3+ T cell” value is “no impact”. In the assay on mouse splenocytes (no anti-CD3/anti-CD28, read-out: IC50, IL-23-stimulated IL-17A production), the IC50 was 19 nM. The IC50 in the assay with mouse splenocytes (no anti-CD3/anti-CD28, read-out: IC50, IL-23-stimulated IL-22 production) is 37 nM. Besides, the “reduction of AUC for disease score” value in assay [2] was found to be 79%. The “decrease of IL-17A-producing CD3+ cell population in paws” value in assay [2] (day 35) is ~ 70%. Further, the “inflammation, cartilage damage and bone destruction compared with vehicle” value in assay [2] (hind paws histology) is listed as “significantly reduced”. The “reduction of total histopathology score” value in assay [2] (hind paws, day 35) is on record as 80%.
